Experimental findings from PubChem BioAssay (NCI) are described below.

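Method: 48-hour compound exposure of cells in 96-well plates, five concentrations, linear interpolation of endpoints. At the GI50, growth is halved. The concentration for full growth arrest is given as TGI.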

By TGI is commonly meant the concentration giving total growth inhibition. The low end stands for more potent growth arrest, the high end for less potent growth arrest. Usually GI50 stands for the concentration giving 50% growth inhibition.

Test systems include CAKI-1 renal; HT29 colon; MCF7 breast; MDA-MB-231 breast; MOLT-4 leukemia; OVCAR-4 ovarian; RXF 393 renal; SF-268 CNS; SK-MEL-28 melanoma; SNB-75 CNS.
Assay in all cases: DTP human tumour cell line panel, 48 h

Take `CC1(C)C(=O)/C=C\C(=O)C(C)(C)C2=CC=C(O2)C(C)(C)C(=O)C(Br)C(Br)C(=O)C(C)(C)C2=CC=C1O2` (stereo not given): the TGI with CAKI-1 renal was above 100 µM; in the assay with HT29 colon, above 100 µM; in the assay on MCF7 breast, above 100 µM; in the assay on MDA-MB-231 breast it was above 86.7 µM; in the assay on MOLT-4 leukemia, 30.6 µM; with OVCAR-4 ovarian, above 100 µM. For the same molecule, the TGI in the assay with RXF 393 renal was above 83.8 µM; in the assay with SF-268 CNS, above 100 µM; in the assay on SK-MEL-28 melanoma, above 100 µM; in the assay with SNB-75 CNS it was above 80.3 µM.
On to `COc1cc(OC)c(C(=O)/C=C/c2ccc(C#N)cc2)c(OC)c1`, for which the GI50 in the assay with CAKI-1 renal is 1.73 µM; with HT29 colon, 1.88 µM; with MCF7 breast, 1.49 µM; in the assay with MDA-MB-231 breast it was 2.31 µM; with MOLT-4 leukemia, 1.44 µM; in the assay on OVCAR-4 ovarian it was 1.63 µM. Besides, the GI50 in the assay on RXF 393 renal is 1.39 µM; in the assay on SF-268 CNS it was 1.97 µM; in the assay on SK-MEL-28 melanoma it was 1.92 µM; in the assay with SNB-75 CNS it was 1.27 µM. In addition, the concentration for total growth inhibition (TGI) is 8.78 µM in the assay with CAKI-1 renal; 8.28 µM in the assay with HT29 colon; above 50 µM in the assay on MCF7 breast; 9.32 µM in the assay with MDA-MB-231 breast; 13 µM in the assay on MOLT-4 leukemia; above 50 µM with OVCAR-4 ovarian. Also, the total growth inhibition concentration (TGI) with RXF 393 renal amounted to 4.23 µM; with SF-268 CNS it was 46.5 µM; in the assay on SK-MEL-28 melanoma, 7.61 µM; with SNB-75 CNS, 6.62 µM.
Consider `O=C1OC2(c3ccc(O)cc3Oc3cc(O)ccc32)c2cccc3cccc1c23`, for which the GI50 with CAKI-1 renal was 24.6 µM; in the assay on HT29 colon, 21 µM; with MCF7 breast it was 19.9 µM; in the assay with MDA-MB-231 breast it was 14.3 µM; in the assay on MOLT-4 leukemia it was 31.6 µM; with OVCAR-4 ovarian it was 16.1 µM. For the same molecule, the GI50 is 13.8 µM in the assay on RXF 393 renal, 29.5 µM in the assay on SF-268 CNS, 17.2 µM in the assay with SK-MEL-28 melanoma and 12.3 µM with SNB-75 CNS. Further, the total growth inhibition concentration (TGI) is above 100 µM in the assay with CAKI-1 renal; 47.4 µM in the assay on HT29 colon; 91.3 µM in the assay on MCF7 breast; 40.3 µM in the assay on MDA-MB-231 breast; above 100 µM with MOLT-4 leukemia; 34.4 µM with OVCAR-4 ovarian. The total growth inhibition concentration (TGI) was 26.9 µM in the assay on RXF 393 renal, above 100 µM in the assay with SF-268 CNS, 34.3 µM in the assay on SK-MEL-28 melanoma and 43.4 µM with SNB-75 CNS.
Consider `Cc1[nH]c2ccccc2c1CO`, for which the GI50 was 14.9 µM in the assay with CAKI-1 renal; 15.9 µM in the assay on HT29 colon; 21.3 µM with MCF7 breast; 18.1 µM with MDA-MB-231 breast; 25.1 µM in the assay with MOLT-4 leukemia; 21.4 µM in the assay with OVCAR-4 ovarian. The GI50 in the assay with RXF 393 renal was 20.2 µM; with SF-268 CNS it was 10.2 µM; in the assay with SK-MEL-28 melanoma it was 16.6 µM; with SNB-75 CNS it was 7.33 µM. Besides, the total growth inhibition concentration (TGI) in the assay with CAKI-1 renal stood at 42.2 µM; with HT29 colon it was 34.7 µM; in the assay with MCF7 breast, 51.5 µM; in the assay with MDA-MB-231 breast, 54.7 µM; with MOLT-4 leukemia, 91.6 µM; with OVCAR-4 ovarian it was 82.6 µM. Further, the TGI with RXF 393 renal worked out at 47.6 µM; with SF-268 CNS it was 22.9 µM; in the assay on SK-MEL-28 melanoma, 34.3 µM; in the assay with SNB-75 CNS, 39.3 µM.
As to `COc1cc(-n2cc(-c3ccc(Cl)cc3)n(-c3ccccc3)c2=O)cc(OC)c1OC`, the GI50 with CAKI-1 renal was 26.8 µM; with HT29 colon it was 16.6 µM; in the assay with MCF7 breast it was 15.9 µM; with MDA-MB-231 breast, 16.4 µM; in the assay on MOLT-4 leukemia, 11.3 µM; with OVCAR-4 ovarian it was 17.9 µM. Also, the GI50 in the assay with RXF 393 renal was 24.5 µM; in the assay with SF-268 CNS it was 31.2 µM; in the assay with SK-MEL-28 melanoma, 21.4 µM; with SNB-75 CNS it was 20.9 µM. In addition, the total growth inhibition concentration (TGI) is above 89.9 µM in the assay with CAKI-1 renal; above 100 µM with HT29 colon; 56 µM in the assay with MCF7 breast; above 68.9 µM with MDA-MB-231 breast; above 51.6 µM in the assay with MOLT-4 leukemia; above 100 µM in the assay on OVCAR-4 ovarian. Moreover, the TGI with RXF 393 renal, with SF-268 CNS, in the assay with SK-MEL-28 melanoma and in the assay on SNB-75 CNS was above 100 µM each time.
Regarding `NC(=O)c1cn(C2CC(O)C(CO)O2)c2ncnc(N)c12` (stereo not given), the GI50 in the assay on CAKI-1 renal is 3.2 µM; in the assay with HT29 colon, 2.07 µM; with MCF7 breast, 0.376 µM; in the assay with MDA-MB-231 breast it was 3.26 µM; in the assay with MOLT-4 leukemia it was 0.611 µM; with OVCAR-4 ovarian, 6.26 µM. Moreover, the GI50 in the assay on RXF 393 renal was 2.08 µM; in the assay with SF-268 CNS it was 6.17 µM; in the assay on SK-MEL-28 melanoma, 7.28 µM; in the assay on SNB-75 CNS it was 1.52 µM. The TGI was 39.4 µM in the assay with CAKI-1 renal; above 54.8 µM with HT29 colon; 13.9 µM in the assay with MCF7 breast; 21.2 µM in the assay with MDA-MB-231 breast; above 100 µM in the assay on MOLT-4 leukemia; above 100 µM with OVCAR-4 ovarian. The concentration for total growth inhibition (TGI) in the assay on RXF 393 renal is 13.9 µM; in the assay with SF-268 CNS, above 76.9 µM; with SK-MEL-28 melanoma it was above 83.1 µM; with SNB-75 CNS, 9.47 µM.
Regarding `COc1cccc(/C=C2\CCC(CN(C)C)C2=O)c1` (stereo not given), the TGI was 15.7 µM with CAKI-1 renal; 40.7 µM in the assay on HT29 colon; 13.2 µM in the assay with MCF7 breast; 14 µM with MDA-MB-231 breast; 5.19 µM in the assay on MOLT-4 leukemia; 22.2 µM with OVCAR-4 ovarian. Also, the TGI in the assay with RXF 393 renal was found to be 12.3 µM; in the assay with SF-268 CNS, 33.5 µM; in the assay on SK-MEL-28 melanoma, 8.52 µM; with SNB-75 CNS, 38.2 µM.
Consider `Cc1ccc(-c2cc(C(=O)Nc3ccc(S(=O)(=O)N4CCCCC4)cc3)[nH]n2)c(O)c1`, for which the GI50 in the assay on CAKI-1 renal is above 100 µM; in the assay with HT29 colon, above 100 µM; with MCF7 breast it was above 100 µM; in the assay with MDA-MB-231 breast, 16.8 µM; with MOLT-4 leukemia, 55.1 µM; in the assay on OVCAR-4 ovarian, above 100 µM. The GI50 with RXF 393 renal, in the assay on SF-268 CNS, with SK-MEL-28 melanoma and in the assay with SNB-75 CNS was above 100 µM each time. Moreover, the TGI in the assay on CAKI-1 renal, with HT29 colon, in the assay with MCF7 breast, with MDA-MB-231 breast, in the assay on MOLT-4 leukemia and in the assay on OVCAR-4 ovarian was above 100 µM each time. Further, the TGI with RXF 393 renal, in the assay with SF-268 CNS, in the assay with SK-MEL-28 melanoma and in the assay with SNB-75 CNS was above 100 µM in each case.
